Laboratory results taken from paper PMC12209990, “Effect of Cytochrome P450 3A Inhibition and Induction by Itraconazole and Rifampin on Tazemetostat Pharmacokinetics in Patients With Advanced Malignancies” (Clinical Pharmacology in Drug Development, 2025).

Columns and labels:
[1] = Safety (TEAEs) Part 2: tazemetostat coadministered with rifampin; details: human, in vivo
Description: Part 2 of the study evaluated the DDI between tazemetostat and rifampin. On the mornings of Days 1 and 15, patients received a single dose of tazemetostat 800 mg orally. On Days 3‐14, patients received tazemetostat 800 mg twice daily. On Days 17‐23, patients received tazemetostat 800 mg twice daily, coadministered in the morning with a single dose of rifampin 600 mg orally. On the morning of Day 24, patients received a single dose of tazemetostat 800 mg coadministered with rifampin 600 mg. On the morning of Day 25, patients received rifampin 600 mg (Figure 1B). Throughout Part 2, administration of rifampin occurred 1 hour before a meal.
(§1) Safety was assessed by monitoring treatment‐emergent adverse events (TEAEs) and vital signs, electrocardiography, and clinical laboratory tests. TEAEs were defined as adverse events that started or worsened in severity on or after the date of the first dose of the study drug through 30 days after the last dose. Treatment‐related TEAEs were summarized by each study drug for both study parts. Adverse events were coded using the Medical Dictionary for Regulatory Activities Version 23.1 and graded per Common Terminology Criteria for Adverse Events Version 5.0.

[2] = Safety (TEAEs) Part 1: tazemetostat coadministered with itraconazole; details: human, in vivo
Description: Part 1 of the study evaluated the DDI between tazemetostat and itraconazole. On the mornings of Days 1 and 15, patients received a single dose of tazemetostat 400 mg orally. On Days 3‐14, patients received tazemetostat 400 mg twice daily (morning and evening). On Days 18‐20, patients received itraconazole 200 mg orally once daily in the morning. On Days 21‐35, tazemetostat 400 mg twice daily was coadministered in the morning with a single dose of itraconazole 200 mg. On Day 36, patients received a single dose of tazemetostat 400 mg coadministered in the morning with a single dose of itraconazole 200 mg. On Days 37 and 38, patients received a single dose of itraconazole 200 mg (Figure 1A). Throughout Part 1, administration of itraconazole occurred 1 hour after a meal.
as §1

Row | Compound | Treatment-related TEAE Grade 3 or 4, related to the named study drug, patients [1] | Treatment-related TEAEs, related to the named study drug, patients [1] | Treatment-related TESAE, related to the named study drug, patients [1] | Treatment-related TEAE Grade 3 or 4, related to the named study drug, patients [2] | Treatment-related TEAEs, related to the named study drug, patients [2] | Treatment-related TESAE, related to the named study drug, patients [2]
1 | CO[C@H]1/C=C/O[C@@]2(C)Oc3c(C)c(O)c4c(O)c(c(/C=N/N5CCN(C)CC5)c(O)c4c3C2=O)NC(=O)/C(C)=C\C=C\[C@H](C)[C@H](O)[C@@H](C)[C@@H](O)[C@@H](C)[C@H](OC(C)=O)[C@@H]1C [Rifampin] | 1 (4.8) n (%) | 8 (38.1) n (%) | 0 n (%) | – | – | –
2 | CCC(C)n1ncn(-c2ccc(N3CCN(c4ccc(OCC5COC(Cn6cncn6)(c6ccc(Cl)cc6Cl)O5)cc4)CC3)cc2)c1=O (stereo not drawn) [Itraconazole] | – | – | – | 1 (4.8) n (%) | 8 (38.1) n (%) | 0 n (%)
